From PMC10233829 (ACS Omega, 2023)
Values after ≈ are worked out from the molar mass of the structure shown.

How the values were obtained:
S. aureus DNA gyrase = S. aureus DNA gyrase (Staphylococcus aureus, UniProt P0A0K8+P20831); experiment: biochemical; details: supercoiling of relaxed pBR322
Description: The enzymatic assay was carried using commercial topoisomerases type II as previously described by Alt et al.[55] with some modifications.
Briefly, 1 U of the enzyme (gyrase or topo IV, Inspiralis. Norwich, UK) isolated from S. aureus converts […] of relaxed pBR322 DNA to the supercoiled form (gyrase) or decatenates 200 ng of kinetoplast DNA (topo IV). […] The reactions were terminated by adding an equal volume of STEB buffer (40% sucrose, 100 mM Tris–HCl pH 8, 10 mM EDTA, and 0.5 mg/mL bromophenol blue), followed by extraction with 1 volume of chloroform/isoamyl alcohol (24:1). The samples were vortexed and centrifuged, and 20 μL of the aqueous phase of each sample was loaded onto a 1% agarose gel and left for 30 min prior to electrophoresis to allow diffusion of salt. […] Gels were stained with ethidium bromide and visualized under UV light in a transilluminator (ChemiDoc MP, Bio Rad).

[1] = molecular target: T1, S. aureus topoisomerase IV (Staphylococcus aureus, UniProt P0C1S7+P0C1U9); experiment: Topoisomerase IV decatenation assay; type: biochemical; details: decatenation of kinetoplast DNA; read-out: IC50 S. aureus topoisomerase IV (converted)
T1 construct: purchased Inspiralis, Norwich, UK
Description: Briefly, 1 U of the enzyme (gyrase or topo IV, Inspiralis. Norwich, UK) isolated from S. aureus converts 0.5 mg of relaxed pBR322 DNA to the supercoiled form (gyrase) or decatenates 200 ng of kinetoplast DNA (topo IV). […] The reactions were terminated by adding an equal volume of STEB buffer (40% sucrose, 100 mM Tris–HCl pH 8, 10 mM EDTA, and 0.5 mg/mL bromophenol blue), followed by extraction with 1 volume of chloroform/isoamyl alcohol (24:1). The samples were vortexed and centrifuged, and 20 μL of the aqueous phase of each sample was loaded onto a 1% agarose gel and left for 30 min prior to electrophoresis to allow diffusion of salt. […] Gels were stained with ethidium bromide and visualized under UV light in a transilluminator (ChemiDoc MP, Bio Rad).

[2] = system: P. aeruginosa ATCC 15442 and E. coli ATCC 25922; experiment: MIC, standard Gram-negative rods as a panel; type: cell-based; details: P. aeruginosa ATCC 15442, E. coli ATCC 25922; for MIC: read-out: MIC against standard Gram-negative rods (range over strains)
M. tuberculosis Spec 210 = experiment: microbe, parasite or virus in culture; type: cell-based, Mycobacterium tuberculosis; details: M. tuberculosis Spec. 210
[3] = Trypan blue exclusion assay; type: cell-based, human; details: human; HaCaT, 72 h, compound at IC50
Source text: (§1) To monitor cell proliferation in response to long-term conjugate treatment, the trypan-blue exclusion assay was further performed. […] Thus, they exerted a cytostatic effect on them, suppressing their growth and proliferation. […]. […] […].
(§2) Figure 9 Trypan blue assay. The effect of compounds 3, 15, and 21 on cell number in PC3 and HaCaT cells. […] Data are expressed as the mean ± SD. ***p ≤ 0.001, **p ≤ 0.002, and *p ≤ 0.01, as compared to the control.
(§3) Figure 10 Trypan blue assay. The effect of compounds 3, 15, and 21 on viability in PC3 and HaCaT cells. […] Data are expressed as the mean ± SD. ***p ≤ 0.001, **p ≤ 0.01, and *p ≤ 0.05, as compared to the control.

HaCaT cells [4] = experiment: Trypan blue exclusion assay; type: cell-based, human
Source text: as §1, §2, §3

PC3 cells [5] = experiment: Trypan blue exclusion assay; type: cell-based, human
Source text: as §1, §2, §3

HaCaT cells [6] = experiment: Annexin V-FITC/PI binding assay, flow cytometry; type: cell-based, human; details: 72 h, IC50 concentration
Description: (§4) The PC3 and HaCaT cells were cultured and harvested under the conditions mentioned in the Cell Culture section and seeded in 12-well plates (1 × 10^5 cells per well). […] The apoptotic effect was performed using the annexin V-FITC/propidium iodide (PI) apoptosis assay kit (Becton Dickinson, Pharmingen) according to the manufacturer’s instructions and analyzed by flow cytometry (Becton Dickinson). The cells which were annexin V-FITC-positive and PI-negative were identified as early apoptotic and both annexin V-FITC- and PI-positive as late apoptotic or necrotic. The experiment was repeated three times.

PC3 cells [7] = experiment: Annexin V-FITC/PI binding assay, flow cytometry; type: cell-based, human; details: IC50 concentration
Description: as §4

[8] = system: IL-6 level in HaCaT cells; experiment: Interleukin-6 ELISA; type: cell-based, human; details: IC50 concentration, 72 h
Description: (§5) The level of interleukin-6 (IL-6) in PC3 and HaCaT cell lines was measured by commercial human IL-6 ELISA kits Diaclon SAS (Besancon Cedex, France). […] The untreated cells were used as the control. The IL-6 level in a cell culture supernatant was measured using an enzyme-linked immunosorbent assay in accordance with the manufacturer’s instruction. The experiment was repeated three times.

IL-6 level in PC3 cells = experiment: Interleukin-6 ELISA; type: cell-based, human; details: PC3, IC50 concentration, 72 h
Description: as §5

P. aeruginosa ATCC 15442 = experiment: Bacterial growth curve assay (OD600, 18 h); type: cell-based, Pseudomonas aeruginosa; details: for exponential phase shifted to: P. aeruginosa
E. coli ATCC 25922 = experiment: Bacterial growth curve assay (OD600, 18 h); type: cell-based, Escherichia coli; details: E. coli, 0.006 μg/mL
[9] = system: E. coli ATCC 25922 biofilm; experiment: Biofilm eradication assay (crystal violet); type: cell-based, Escherichia coli; details: 4 MIC
Description: Three bacterial strains E. coli ATCC 25922, P. aeruginosa ATCC 15442, and S. aureus ATCC 6538 were used to assign biofilm eradication properties of compounds 5, 10, 11, and CP as the reference drug. To quantify the biomass of the bacteria biofilm, the crystal violet method was used with some modifications.[52] The bacteria were incubated to the mid-log phase, diluted to 103 cfu/mL in brain–heart infusion medium, and seeded in a 96-well plate. Bacterial biofilms were formed by overnight incubation at 37 °C with rotation at 140 rpm. After biofilm formation, all wells were washed with PBS to remove nonadherent bacteria cells. […] The biofilms with tested substances were incubated for 20 h at 37 °C with shaking at 140 rpm. The bacterial biofilm was stained with 0.1% (v/v) CV for 10 min. Afterward, the biofilm was rinsed with PBS and dried. To solubilize the adsorbed crystal violet, wells with stained biofilms were incubated in 30% acetic acid. To estimate the total biofilm biomass, optical density (OD) of the resulting solution was measured at 595 nm. Biofilm assays were repeated at least three times on different days, with two technical replicates assessed each time. A minimum eradication concentration (MBEC) was determined as the lowest concentration of compound, which could damage ≥50% of the formed biofilm structure.

T1 sequence (P0C1U9 whole entry): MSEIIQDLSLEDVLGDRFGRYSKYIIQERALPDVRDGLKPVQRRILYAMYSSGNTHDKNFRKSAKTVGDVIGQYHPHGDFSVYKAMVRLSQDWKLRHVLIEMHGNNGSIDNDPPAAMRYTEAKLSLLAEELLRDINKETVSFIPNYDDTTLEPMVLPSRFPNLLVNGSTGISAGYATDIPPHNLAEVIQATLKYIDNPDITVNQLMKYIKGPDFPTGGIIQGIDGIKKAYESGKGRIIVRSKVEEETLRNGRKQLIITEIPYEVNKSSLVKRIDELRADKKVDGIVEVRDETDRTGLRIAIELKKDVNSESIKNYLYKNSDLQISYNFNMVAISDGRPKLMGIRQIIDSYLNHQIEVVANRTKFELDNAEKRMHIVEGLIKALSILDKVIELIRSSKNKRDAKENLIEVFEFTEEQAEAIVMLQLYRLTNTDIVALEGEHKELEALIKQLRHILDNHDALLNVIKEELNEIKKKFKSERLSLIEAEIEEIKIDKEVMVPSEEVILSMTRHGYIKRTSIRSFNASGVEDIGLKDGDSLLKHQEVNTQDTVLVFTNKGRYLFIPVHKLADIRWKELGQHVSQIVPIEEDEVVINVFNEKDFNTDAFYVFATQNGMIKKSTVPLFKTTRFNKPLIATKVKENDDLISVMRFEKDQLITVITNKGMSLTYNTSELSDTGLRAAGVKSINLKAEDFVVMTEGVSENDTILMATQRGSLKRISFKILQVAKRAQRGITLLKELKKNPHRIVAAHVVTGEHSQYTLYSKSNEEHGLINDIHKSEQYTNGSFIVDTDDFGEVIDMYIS
T1 sequence (P0C1S7 whole entry): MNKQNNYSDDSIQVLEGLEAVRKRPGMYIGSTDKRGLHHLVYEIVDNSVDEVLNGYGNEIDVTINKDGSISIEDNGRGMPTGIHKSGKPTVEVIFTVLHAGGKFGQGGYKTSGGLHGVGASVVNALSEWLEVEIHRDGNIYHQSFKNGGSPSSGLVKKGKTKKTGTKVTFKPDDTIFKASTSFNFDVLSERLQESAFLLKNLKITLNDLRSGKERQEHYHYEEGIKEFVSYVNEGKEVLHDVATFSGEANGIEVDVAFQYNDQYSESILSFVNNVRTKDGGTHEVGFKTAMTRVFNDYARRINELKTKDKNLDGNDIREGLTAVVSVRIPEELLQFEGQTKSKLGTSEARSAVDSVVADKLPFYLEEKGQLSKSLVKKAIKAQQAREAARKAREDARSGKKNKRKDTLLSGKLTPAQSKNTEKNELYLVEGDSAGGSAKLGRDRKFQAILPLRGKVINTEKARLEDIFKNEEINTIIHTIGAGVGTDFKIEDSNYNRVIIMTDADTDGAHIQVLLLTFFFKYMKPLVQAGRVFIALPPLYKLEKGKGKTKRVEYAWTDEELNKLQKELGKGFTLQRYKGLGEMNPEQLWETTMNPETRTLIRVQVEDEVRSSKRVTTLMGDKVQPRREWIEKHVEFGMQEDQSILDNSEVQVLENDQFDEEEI
S. aureus DNA gyrase, sequence (P0A0K8 whole entry): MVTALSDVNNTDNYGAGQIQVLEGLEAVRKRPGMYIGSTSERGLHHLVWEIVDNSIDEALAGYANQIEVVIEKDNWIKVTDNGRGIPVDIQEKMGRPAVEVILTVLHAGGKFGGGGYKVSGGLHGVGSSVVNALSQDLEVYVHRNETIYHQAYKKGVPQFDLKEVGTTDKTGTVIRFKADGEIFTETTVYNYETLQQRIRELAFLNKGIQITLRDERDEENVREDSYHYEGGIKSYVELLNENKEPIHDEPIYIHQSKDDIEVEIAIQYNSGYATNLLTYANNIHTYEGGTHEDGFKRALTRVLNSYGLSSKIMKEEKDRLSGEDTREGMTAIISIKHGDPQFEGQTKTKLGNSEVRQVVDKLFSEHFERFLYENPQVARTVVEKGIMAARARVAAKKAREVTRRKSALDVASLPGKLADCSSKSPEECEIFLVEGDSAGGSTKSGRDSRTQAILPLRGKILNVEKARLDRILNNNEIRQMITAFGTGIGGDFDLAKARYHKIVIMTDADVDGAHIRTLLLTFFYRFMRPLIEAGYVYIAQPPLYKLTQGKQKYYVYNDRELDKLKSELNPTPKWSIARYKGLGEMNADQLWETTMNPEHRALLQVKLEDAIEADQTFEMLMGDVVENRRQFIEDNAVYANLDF
S. aureus DNA gyrase, sequence (P20831 whole entry): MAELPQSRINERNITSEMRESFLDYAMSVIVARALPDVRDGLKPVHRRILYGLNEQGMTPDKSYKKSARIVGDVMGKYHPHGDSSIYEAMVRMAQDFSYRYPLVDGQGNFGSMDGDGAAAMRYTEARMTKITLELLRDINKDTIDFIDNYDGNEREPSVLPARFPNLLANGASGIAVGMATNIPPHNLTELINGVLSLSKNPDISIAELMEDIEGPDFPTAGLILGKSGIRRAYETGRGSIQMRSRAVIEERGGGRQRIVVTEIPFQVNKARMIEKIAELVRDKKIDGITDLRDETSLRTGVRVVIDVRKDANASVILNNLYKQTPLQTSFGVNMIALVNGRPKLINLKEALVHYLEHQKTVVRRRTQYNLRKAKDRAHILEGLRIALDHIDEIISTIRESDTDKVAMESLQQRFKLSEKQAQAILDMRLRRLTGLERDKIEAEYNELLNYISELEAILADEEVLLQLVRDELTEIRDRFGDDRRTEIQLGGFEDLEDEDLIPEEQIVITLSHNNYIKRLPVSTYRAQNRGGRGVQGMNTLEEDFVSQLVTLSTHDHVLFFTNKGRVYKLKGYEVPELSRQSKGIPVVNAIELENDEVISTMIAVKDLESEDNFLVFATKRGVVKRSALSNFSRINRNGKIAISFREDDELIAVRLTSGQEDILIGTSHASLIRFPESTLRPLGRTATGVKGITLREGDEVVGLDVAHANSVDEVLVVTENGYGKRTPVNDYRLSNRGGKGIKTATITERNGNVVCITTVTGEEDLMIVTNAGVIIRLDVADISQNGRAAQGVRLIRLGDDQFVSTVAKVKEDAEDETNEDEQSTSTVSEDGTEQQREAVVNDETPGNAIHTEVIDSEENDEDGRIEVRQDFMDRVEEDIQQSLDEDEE

For O=C(O)c1cn(C2CC2)c2cc(N3CCN(C(=O)C4CC4)CC3)c(F)cc2c1=O [Compound 2, 7-(4-Cyclopropanecarbonyl-piperazin-1-yl)-1-cyclopropyl-6-fluoro-4-oxo-1,4-dihydro-quinoline-3-carboxylic Acid], the IC50 (S. aureus DNA gyrase) was 22.3 µM, the IC50 [1] was 23.8 µM and the “share of CP potency kept against standard Gram-negative rods” value [2] was 30–60%. It also gave an MIC [2] of 0.025 to 0.2 µg/mL (≈ 0.0626 to 0.501 µM).

With O=C(O)c1cn(C2CC2)c2cc(N3CCN(C(=O)CCl)CC3)c(F)cc2c1=O [Compound 3, 7-[4-(2-Chloroacetyl)-piperazin-1-yl]-1-cyclopropyl-6-fluoro-4-oxo-1,4-dihydro-quinoline-3-carboxylic Acid] the “fold more effective than the reference tuberculostatics” value (M. tuberculosis Spec 210) was 8–32 fold, the IC50 (S. aureus DNA gyrase) was 61.3 µM and the IC50 [1] was 78.5 µM. The viability at 72 h [3] was 75 ± 2.23%, the “Cell number (% of control)” value (HaCaT cells [4]; 72 h, compound at IC50) was 12.15 % of control and the “Cell number x 10^6” value (HaCaT cells [4]; 72 h, compound at IC50) was 0.2 ± 0.01 x 10^6. For the same molecule, the “impact on the number of live human keratinocytes” value (HaCaT cells [4]; compounds at their IC50 for PC3 cells (2.02, 15.7, 4.8 μM)) was “negligible impact”, the “decrease of PC3 cell viability” value (PC3 cells [5]; 72 h, IC50 concentration) was 48% and the “Cell number (% of control)” value (PC3 cells [5]; PC3, 72 h, compound at IC50) was 1.97 % of control. The “Cell number x 10^6” value (PC3 cells [5]; PC3, 72 h, compound at IC50) was 0.04 ± 0.01 x 10^6, the “Viability (%)” value (PC3 cells [5]; PC3, 72 h, compound at IC50) was 52 ± 2.40% and the “HaCaT cells in late apoptosis/necrosis” value (HaCaT cells [6]) was 47.23%. It also gave a Dead cells (HaCaT cells [6]; HaCaT) of 9.99 ± 1.17%, an Early apoptosis (HaCaT cells [6]; HaCaT) of 10.07 ± 1.22% and a Late apoptosis (HaCaT cells [6]; HaCaT) of 37.24 ± 2.27%. For the same molecule, the Live cells (HaCaT cells [6]; HaCaT) was 42.70 ± 2.81%, the “PC3 cells in late apoptosis or necrosis” value (PC3 cells [7]; 72 h) was 78.22% and the Dead cells (PC3 cells [7]; PC3, 72 h) was 66.10 ± 6.31%. It also gave an Early apoptosis (PC3 cells [7]; PC3, 72 h) of 1.51 ± 0.04%, a Late apoptosis (PC3 cells [7]; PC3, 72 h) of 12.12 ± 2.18% and a Live cells (PC3 cells [7]; PC3, 72 h) of 20.27 ± 0.45%. The “effect on IL-6 in human keratinocytes” value [8] was “stimulated human keratinocytes to produce IL-6”, the “decrease of IL-6 release as compared to the control” value (IL-6 level in PC3 cells) was 3.5 times and the MIC [2] was at most 1 µg/mL.

In the case of O=C(O)c1cn(C2CC2)c2cc(N3CCN(C(=O)CCCCl)CC3)c(F)cc2c1=O [Compound 5, 7-[4-(4-Chlorobutyryl)-piperazin-1-yl]-1-cyclopropyl-6-fluoro-4-oxo-1,4-dihydro-quinoline-3-carboxylic Acid], the IC50 (S. aureus DNA gyrase) is reported as 7.34 µM, the IC50 [1] is reported as 6.19 µM and the “dose that fully inhibited bacterial growth” value (P. aeruginosa ATCC 15442; P. aeruginosa ATCC 15442, 18 h) is reported as at least 0.2 µg/mL. The “exponential phase shifted to” value (P. aeruginosa ATCC 15442; 0.03 μg/mL) was 7 to 12 h, the “exponential phase shifted to” value (P. aeruginosa ATCC 15442; 0.05 μg/mL) was 8 to 15 h and the “lag phase elongated to” value (E. coli ATCC 25922) was 6 h. For the same molecule, the “eradication of the biofilm formed by E. coli” value [9] was “approx. 20%”, the “share of CP potency kept against standard Gram-negative rods” value [2] was 30–60% and the MIC [2] was 0.025 to 0.2 µg/mL (≈ 0.0574 to 0.459 µM).
